The values below come from patent US8664257B2, “Oxygen-substituted 3-heteroaroylamino-propionic acid derivatives and their use as pharmaceuticals” (Sanofi, priority 2010, dated 2014).

One may read the IC50 as the concentration that gives 50% inhibition.

One assay has as its target T1, Recombinant human cathepsin A (Homo sapiens, UniProt P10619).
T1 construct: Recombinant human cathepsin A (residues 29-480, with a C-terminal 10-His tag); 10-His (C); purchased R&D Systems 1049-SE
T1 sequence (P10619 29-312 limits assumed): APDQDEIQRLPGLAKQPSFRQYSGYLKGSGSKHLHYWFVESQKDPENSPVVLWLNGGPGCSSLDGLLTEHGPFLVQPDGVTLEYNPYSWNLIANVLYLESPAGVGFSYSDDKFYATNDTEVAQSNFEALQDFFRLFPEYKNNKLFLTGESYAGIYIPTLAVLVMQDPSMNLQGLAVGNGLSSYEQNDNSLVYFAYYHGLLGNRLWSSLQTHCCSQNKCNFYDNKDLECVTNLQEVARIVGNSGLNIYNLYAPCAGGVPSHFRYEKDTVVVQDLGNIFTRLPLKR
T1 sequence (P10619 327-480 limits assumed): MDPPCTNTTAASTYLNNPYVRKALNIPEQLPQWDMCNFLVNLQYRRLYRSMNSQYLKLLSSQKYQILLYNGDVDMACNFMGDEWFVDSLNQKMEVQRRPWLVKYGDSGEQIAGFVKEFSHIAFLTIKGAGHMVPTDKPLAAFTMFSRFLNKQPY
The assay is described as follows: Cathepsin A inhibitory activity. To be noted: pharmacological test "Cathepsin A inhibitory activity"; IC50 given as class A/B/C; read-out: Activity (2): Cathepsin A inhibitory activity, IC50 class. It is filed as biochemical. The method in brief: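 Human cathepsin A (res. 29-480, C-His10) pre-activated with cathepsin L (MES pH 6.0, DTT, 15 min, 37 °C; quenched with 10 μM E-64). Enzyme (833 ng/ml) preincubated 15 min RT with compound in MES pH 5.5/DTT, then 2 μM Bodipy FL-bradykinin for 15 min RT. Capillary electrophoresis product/substrate peak areas; IC50 from % inhibition.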
On to `O=C(O)CC(NC(=O)c1cc(O)n(-c2ccccc2F)n1)c1ccc(-c2ccccc2)cc1` (stereo not drawn) [Example 150], for which the IC50 is below 100 nM. For `O=C(O)CC(NC(=O)c1cc(O)n(-c2cccc(Cl)c2)n1)c1ccccc1F` (stereo not drawn) [Example 254], the IC50 is 100 to 1000 nM. `O=C(O)CC(NC(=O)c1cc(O)n(-c2ccccc2F)n1)c1cccc(OCc2ccccc2)c1` (stereo not drawn) [Example 229]: the IC50 fell in the range of 1000 to 30000 nM. On the same count and under the same terms, the figure for `O=C(O)C[C@H](NC(=O)c1cc(O)n(-c2ccccc2Cl)n1)c1cccnc1` [Example 145] is 100 to 1000 nM; for `O=C(O)CC(NC(=O)c1cc(O)n(-c2cccc(Cl)c2)n1)c1ccc(-c2cccc(F)c2)cc1` (stereo not drawn) [Example 260] it is 1000 to 30000 nM. Still for that read-out and setting: to `O=C(O)CC(NC(=O)c1cc(O)n(-c2ccccc2F)n1)c1ccc(Cl)cc1F` (stereo not drawn) [Example 243] belongs 100 to 1000 nM.

The same assay, now with this note: read-out: Activity (2): Cathepsin A inhibitory activity (IC50 class).
For the compound `COc1cc(C(=O)N[C@@H](CC(=O)O)c2ccccc2C(F)(F)F)nn1-c1ccccc1F` [Example 680, (S)-3-{[1-(2-Fluoro-phenyl)-5-methoxy-1H-pyrazole-3-carbonyl]-amino}-3-(2-trifluoromethyl-phenyl)-propionic acid], the IC50 was 100 to 1000 nM.

For `COc1cccc([C@H](CC(=O)O)NC(=O)c2cc(OCC3CC3)n(-c3ccccc3F)n2)c1` [Example 689], the IC50 lay in the range of 100 to 1000 nM. Still for that read-out and setting: to `Cc1ccccc1[C@H](CC(=O)O)NC(=O)c1cc(OC[C@@H](O)C2CC2)n(-c2ccccc2F)n1` (single isomer, unassigned) [Example 761] belongs below 100 nM.

`O=C(O)CC(NC(=O)c1cc(O)n(-c2ccccc2F)n1)c1ccc(-n2cccn2)cc1` (stereo not drawn) [Example 582]: the IC50 lay in the range of 100 to 1000 nM. In the case of `O=C(O)CC(NC(=O)c1cc(O)n(-c2ccccc2F)n1)c1ccc(-c2ccc(C(F)(F)F)cc2)cc1` (stereo not drawn) [Example 576], the IC50 is 100 to 1000 nM. As to `O=C(O)CC(NC(=O)c1cc(O)n(C2CCCC2)n1)c1ccc(-c2ccc(F)cc2)cc1` (stereo not drawn) [Example 574], the IC50 is 1000 to 30000 nM. As for `Cc1ccccc1[C@H](CC(=O)O)NC(=O)c1cc(OC[C@H](O)C2CC2)n(-c2ccccc2F)n1` (single isomer, unassigned) [Example 760], the IC50 was below 100 nM. On the same count and under the same terms, the figure for `COc1ccc(C(CC(=O)O)NC(=O)c2cc(OCC3CC3)n(-c3ccccc3F)n2)c(Cl)c1` (stereo not drawn) [Example 705] is below 100 nM; for `O=C(O)C[C@H](NC(=O)c1cc(OCC2CC2)n(-c2ccccc2F)n1)c1ccccc1` [Example 685] it is below 100 nM. Turning to `COc1ccc(-c2ccccc2)cc1C(CC(=O)O)NC(=O)c1cc(O)n(-c2ccccc2F)n1` (stereo not drawn) [Example 556, 3-{[1-(2-Fluoro-phenyl)-5-hydroxy-1H-pyrazole-3-carbonyl]-amino}-3-(4-methoxy-biphenyl-3-yl)-propionic acid], the IC50 fell in the range of 1000 to 30000 nM. Same read-out and setting: to `Cc1ccc(C(CC(=O)O)NC(=O)c2cc(O)n(-c3ccccc3F)n2)c(F)c1` (stereo not drawn) [Example 555, 3-(2-Fluoro-4-methyl-phenyl)-3-{[1-(2-fluoro-phenyl)-5-hydroxy-1H-pyrazole-3-carbonyl]-amino}-propionic acid] belongs 100 to 1000 nM; to `CC(C)[C@](C)(O)COc1cc(C(=O)N[C@@H](CC(=O)O)c2ccccc2C(F)(F)F)nn1-c1ccccc1F` [Example 784, (S)-3-{[1-(2-Fluoro-phenyl)-5-((S)-2-hydroxy-2,3-dimethyl-butoxy)-1H-pyrazole-3-carbonyl]-amino}-3-(2-trifluoromethyl-phenyl)-propionic acid], below 100 nM. In the case of `COc1cc(C(=O)N[C@@H](CC(=O)O)c2ccccc2C)nn1-c1cccc(F)c1` [Example 609], the IC50 is below 100 nM. Same read-out and setting: to `Cc1ccccc1[C@H](CC(=O)O)NC(=O)c1cc(OCC(=O)N2CCCC2)n(-c2ccccc2F)n1` [Example 616] belongs below 100 nM; to `COc1ccc(C(F)(F)F)cc1C(CC(=O)O)NC(=O)c1cc(O)n(-c2ccccc2Cl)n1` (stereo not drawn) [Example 560, 3-{[1-(2-Chloro-phenyl)-5-hydroxy-1H-pyrazole-3-carbonyl]-amino}-3-(2-methoxy-5-trifluoromethyl-phenyl)-propionic acid], 1000 to 30000 nM.

Still in this assay, the particulars now being: read-out: Activity (2): Cathepsin A inhibitory activity, IC50 class.
With `O=C(O)CC(NC(=O)c1cc(O)n(-c2ccccc2)n1)c1ccc(-n2ccnc2)cc1` (stereo not drawn) [Example 105], the IC50 lay within 1000 to 30000 nM. In the case of `COc1ccc(C(CC(=O)O)NC(=O)c2cc(O)n(-c3ccc(F)c(Cl)c3)n2)c(F)c1` (stereo not drawn) [Example 88], the IC50 was 1000 to 30000 nM. For `O=C(O)CC(NC(=O)c1cc(O)n(-c2cccc(F)c2)n1)c1ccc(-c2ccccc2)cc1` (stereo not drawn) [Example 327], the IC50 lay in the range of 100 to 1000 nM. Still for that read-out and setting: the figure for `CC(C)[C@](C)(O)COc1cc(C(=O)N[C@H](CC(=O)O)Cc2ccccc2)nn1-c1ccccc1F` [Example 837, (S)-3-{[1-(2-Fluoro-phenyl)-5-((S)-2-hydroxy-2,3-dimethyl-butoxy)-1H-pyrazole-3-carbonyl]-amino}-4-phenyl-butyric acid] is 1000 to 30000 nM. On the same count and under the same terms, to `O=C(O)C[C@H](NC(=O)c1cc(O)n(-c2cccc(F)c2)n1)c1ccc(F)cc1` [Example 311] belongs 100 to 1000 nM; to `O=C(O)CC(NC(=O)c1cc(O)n(-c2ccccc2F)n1)c1ccc(Oc2ccccc2)cc1` (stereo not drawn) [Example 124], 100 to 1000 nM. On the same count and under the same terms, the figure for `O=C(O)C[C@H](NC(=O)c1cc(O)n(-c2ccccc2Cl)n1)c1ccc(C(F)(F)F)cc1` [Example 110] is 100 to 1000 nM. As for `O=C(O)C[C@H](NC(=O)c1cc(O)n(-c2ccc(F)cc2)n1)c1cccc(C(F)(F)F)c1` [Example 355], the half-maximal inhibitory concentration (IC50) lay within 100 to 1000 nM. `O=C(O)C[C@H](NC(=O)c1cc(O)n(-c2ccc(Cl)cc2)n1)c1ccc(Cl)cc1Cl` [Example 297]: the IC50 lay in the range of 100 to 1000 nM. The same measure, in the same setting: the figure for `Cc1ccc(C)c(-n2nc(C(=O)NC(CC(=O)O)c3ccccc3Cl)cc2O)c1` (stereo not drawn) [Example 39] is 1000 to 30000 nM. The same measure, in the same setting: the figure for `Cc1cccc(C(CC(=O)O)NC(=O)c2cc(O)n(-c3cc(C)ccc3C)n2)c1` (stereo not drawn) [Example 51] is 1000 to 30000 nM.

Take `CC(C)C(C)(O)COc1cc(C(=O)NC(CC(=O)O)C2CCCCC2)nn1-c1ccccc1F` (stereo not drawn) [Example 813, 3-Cyclohexyl-3-{[1-(2-fluoro-phenyl)-5-(2-hydroxy-2,3-dimethyl-butoxy)-1H-pyrazole-3-carbonyl]-amino}-propionic acid]: the IC50 is below 100 nM. On the same count and under the same terms, to `O=C(O)C[C@H](NC(=O)c1cc(O)n(-c2ccccc2)n1)c1c(F)cccc1F` [Example 103] belongs 100 to 1000 nM. Still for that read-out and setting: to `CC(C)(C)[C@](C)(O)COc1cc(C(=O)NC(CC(=O)O)Cc2ccccc2)nn1-c1ccccc1F` (stereo partly drawn) [Example 818, 3-{[1-(2-Fluoro-phenyl)-5-((S)-2-hydroxy-2,3,3-trimethyl-butoxy)-1H-pyrazole-3-carbonyl]-amino}-4-phenyl-butyric acid] belongs below 100 nM. For the compound `COc1ccc(C(CC(=O)O)NC(=O)c2cc(O)n(-c3cc(C)ccc3C)n2)cc1OC` (stereo not drawn) [Example 30], the IC50 was in the range of 1000 to 30000 nM.

With `O=C(O)C[C@H](NC(=O)c1cc(O)n(-c2ccccc2)n1)c1ccc(Cl)cc1` [Example 98], the IC50 was in the range of 100 to 1000 nM.

The assay is the same for the next values; noted with them: recombinant human cathepsin A 833 ng/ml, Bodipy FL-labeled bradykinin 2 μM, pH 5.5; read-out: CATH-A IC50.
As to `O=C(O)CC(NC(=O)c1cc(O)n(-c2ccccc2Cl)n1)c1ccc(N2CCOCC2)cc1` (stereo not drawn) [Example 505, 3-{[1-(2-Chloro-phenyl)-5-hydroxy-1H-pyrazole-3-carbonyl]-amino}-3-(4-morpholin-4-yl-phenyl)-propionic acid], the IC50 is 29800 nM.

For `COc1ccc(-c2ccccc2)cc1C(CC(=O)O)NC(=O)c1cc(O)n(-c2ccccc2F)n1` (stereo not drawn) [Example 556, 3-{[1-(2-Fluoro-phenyl)-5-hydroxy-1H-pyrazole-3-carbonyl]-amino}-3-(4-methoxy-biphenyl-3-yl)-propionic acid], the IC50 came to 8650 nM. On the same count and under the same terms, to `Cc1ccc(C(CC(=O)O)NC(=O)c2cc(O)n(-c3ccccc3F)n2)c(F)c1` (stereo not drawn) [Example 555, 3-(2-Fluoro-4-methyl-phenyl)-3-{[1-(2-fluoro-phenyl)-5-hydroxy-1H-pyrazole-3-carbonyl]-amino}-propionic acid] belongs 239 nM. Same read-out and setting: to `COc1ccc(C(F)(F)F)cc1C(CC(=O)O)NC(=O)c1cc(O)n(-c2ccccc2Cl)n1` (stereo not drawn) [Example 560, 3-{[1-(2-Chloro-phenyl)-5-hydroxy-1H-pyrazole-3-carbonyl]-amino}-3-(2-methoxy-5-trifluoromethyl-phenyl)-propionic acid] belongs 7620 nM.

The same assay, now with this note: recombinant human cathepsin A; read-out: Activity (2): Cathepsin A inhibitory activity, IC50 class.
`Cc1ccc(F)cc1C(CC(=O)O)NC(=O)c1cc(O)n(-c2ccccc2F)n1` (stereo not drawn) [Example 478]: the IC50 is below 100 nM. Still for that read-out and setting: the figure for `O=C(O)CC(NC(=O)c1cc(O)n(-c2ccccc2Cl)n1)c1ccc(N2CCOCC2)cc1` (stereo not drawn) [Example 505, 3-{[1-(2-Chloro-phenyl)-5-hydroxy-1H-pyrazole-3-carbonyl]-amino}-3-(4-morpholin-4-yl-phenyl)-propionic acid] is 1000 to 30000 nM; for `O=C(O)CC(NC(=O)c1cc(O)n(-c2ccccc2F)n1)c1ccc(N2CCOCC2)cc1` (stereo not drawn) [Example 518] it is 1000 to 30000 nM; for `COc1ccc(C(CC(=O)O)NC(=O)c2cc(O)n(-c3ccc(Cl)cc3)n2)c(Cl)c1` (stereo not drawn) [Example 424] it is 100 to 1000 nM. The same measure, in the same setting: to `COc1cc(C(=O)N[C@@H](CC(=O)NC(C)C)c2ccccc2C)nn1-c1ccccc1F` [Example 929] belongs 100 to 1000 nM; to `COc1ccc([C@H](CC(=O)O)NC(=O)c2cc(O)n(-c3ccc(Cl)cc3)n2)cc1` [Example 423], 1000 to 30000 nM. Same read-out and setting: to `COc1ccc(F)cc1C(CC(=O)O)NC(=O)c1cc(O)n(-c2cccc(F)c2)n1` (stereo not drawn) [Example 520] belongs 100 to 1000 nM; to `O=C(O)C[C@H](NC(=O)c1cc(O)n(-c2cccc(Cl)c2)n1)c1cccc(Cl)c1` [Example 415], 100 to 1000 nM. As for `O=C(O)CC(NC(=O)c1cc(O)n(-c2cccnc2)n1)c1ccc(-c2ccccc2)cc1` (stereo not drawn) [Example 440], the IC50 is 1000 to 30000 nM. On the same count and under the same terms, to `O=C(O)CC(NC(=O)c1cc(O)n(-c2ccc(F)cc2F)n1)c1ccc(-c2ccccn2)cc1` (stereo not drawn) [Example 501] belongs below 100 nM.
